# Assays:
# [1] = test system: NOD mouse model of autoimmune type 1 diabetes; details: cited from earlier work
# [2] = test system: murine skin contact delayed-type hypersensitivity (DTH) response; experiment: Murine DTH model for dermatitis, ear swelling; format: in vivo, mice
# Procedure: Certain compounds herein were also tested for their efficacies (of inhibiting Jak targets) in the T-cell driven murine delayed hypersensitivity test model. The murine skin contact delayed-type hypersensitivity (DTH) response is considered to be a valid model of clinical contact dermatitis, and other T-lymphocyte mediated immune disorders of the skin, such as psoriasis (Immunol Today. 1998 January; 19(1):37-44). Murine DTH shares multiple characteristics with psoriasis, including the immune infiltrate, the accompanying increase in inflammatory cytokines, and keratinocyte hyperproliferation. Furthermore, many classes of agents that are efficacious in treating psoriasis in the clinic are also effective inhibitors of the DTH response in mice (Agents Actions. 1993 January; 38(1-2):116-21).
# Test compound 3-{(3R,4R)-4-methyl-3-[methyl-(7H-pyrrolo[2,3-d]pyrimidin-4-yl)amino]-piperidin-1-yl}-3-oxo-propionitrile (see, e.g., WO 01/42246, WO 02/00661, or WO 03/48162) was administered continuously using mini-osmotic pumps to deliver the compound at 150 mg/kg/d. The inflammatory response was monitored by measuring the ear thickness prior to and after immune challenge. Differences in ear thickness were calculated for each mouse and then averaged for the group. Comparisons were made between vehicle and the treated groups in the context of the negative controls (challenged without sensitization) and therapeutic positive control mice (treated with dexamethasone or other efficacious agent).
# A further murine DTH experiment was conducted by treating mice with 3-{(3R,4R)-4-methyl-3-[methyl-(7H-pyrrolo[2,3-d]pyrimidin-4-yl)amino]-piperidin-1-yl}-3-oxo-propionitrile either systemically or topically (3%, BID) after the sensitization phase was complete.
# [3] = test system: STAT3; experiment: Immunohistochemistry of ear sections in murine DTH model; format: in vivo, mice; details: after the sensitization phase
# Procedure: To determine if topical administration of the test compound was sufficient to inhibit activation of the Jak-STAT pathway, immunohistochemistry was carried out on fixed tissues.
# [4] = test system: IL-6-dependent MM cell lines; details: cited from earlier work
# [5] = test system: myeloid dendritic cells (DCs); details: CD40-induced maturation of myeloid DCs; cited from earlier work
# [6] = systemic, continuous by mini-osmotic pumps, 150 mg/kg/d
structure (smiles),measurement,setting,value
COc1cc2ncnc(Nc3ccc(O)cc3)c2cc1OC [JANEX-1],onset of diabetes,[1],delayed the onset of diabetes
"C[C@@H]1CCN(C(=O)CC#N)C[C@@H]1N(C)c1ncnc2[nH]ccc12 [3-{(3R,4R)-4-methyl-3-[methyl-(7H-pyrrolo[2,3-d]pyrimidin-4-yl)amino]-piperidin-1-yl}-3-oxo-propionitrile]",inhibition of ear swelling,"[2]; systemic administration during the challenge phase, after sensitization phase complete (FIG. 1)",> 50%
same,histological analysis of hematoxolyin and eosin stained tissue sections,[2]; [6],near complete inhibition of ear swelling
same,inhibition of ear swelling,[2]; [6],95%
same,inhibition of ear swelling,"[2]; topical administration (3%, BID) during the challenge phase, after sensitization phase complete (FIG. 1)",> 50%
same,number of infiltrating cells,[3]; systemic administration,visibly reduced
same,phosphorylation of STAT3 in all cell types,[3]; systemic administration,inhibited
same,number of infiltrating cells,[3]; topical administration,visibly reduced
same,phosphorylation of STAT3 in all cell types,[3]; topical administration,inhibited
N#C/C(=C\c1ccc(O)c(O)c1)C(=O)NCc1ccccc1 [tyrphostin AG490],JAK2 kinase activity and ERK2 and STAT3 phosphorylation,[4],inhibited
same,apoptosis,[4],induced
same,cell proliferation,[4],suppressed
COc1cc2ncnc(Nc3ccc(O)c(Br)c3)c2cc1OC [WHI-P-154],"CD40-induced JAK3 activity, costimulatory molecule expression, IL-12 production, allogeneic stimulatory capacity",[5],prevented these effects

# Source: patent US9879010B2, “Pyrrolo[2,3-b]pyridin-4-yl-amines and pyrrolo[2,3-b] pyrimidin-5-yl-amines as Janus kinase inhibitors” (Incyte Corporation, priority 2004, dated 2018)
